Data from patent publication US6022861A, “Ketoheterocyclic inhibitors of factor Xa” (COR Therapeutics, Inc., priority 1995, dated 2000).

Tests used:
[1] = target: thrombin (Homo sapiens, UniProt P00734); assay: Thrombin amidolytic assay (Chromozym TH); format: biochemical; settings: read-out: Inhibitory Activity (IC50) Thrombin
Procedure: The compounds of the present invention are dissolved in buffer to give solutions containing concentrations such that assay concentrations range from 0 to 100 μM. In the assays for thrombin, prothrombinase and factor Xa, a synthetic chromogenic substrate is added to a solution containing test compound and the enzyme of interest and the residual catalytic activity of that enzyme is determined spectrophotometrically. The IC50 of a compound is determined from the substrate turnover.
The factor Xa and thrombin assays were performed at room temperature, in 0.02 M Tris·HCl buffer, pH 7.5, containing 0.15 M NaCl. The rates of hydrolysis of the para-nitroanilide substrate S-2765 (Chromogenix) for factor Xa, and the substrate Chromozym TH (Boehringer Mannheim) for thrombin following preincubation of the enzyme with inhibitor for 5 minutes at room temperature, and were determined using the Softmax 96-well plate reader (Molecular Devices), monitored at 405 nm to measure the time dependent appearance of p-nitroaniline.

[2] = rabbit, in vivo
From the text: (§2) Rabbits were anesthetized with I.M. injections of Ketamine, Xylazine, and Acepromazine cocktail. A standardized protocol consisted of insertion of a thrombogenic cotton thread and copper wire apparatus into the abdominal vena cava of the anesthetized rabbit. A non-occlusive thrombus was allowed to develop in the central venous circulation and inhibition of thrombus growth was used as a measure of the antithrombotic activity of the studied compounds. Test agents or control saline were administered through a marginal ear vein catheter. A femoral vein catheter was used for blood sampling prior to and during steady state infusion of test compound. Initiation of thrombus formation begins immediately after advancement of the cotton thread apparatus into the central venous circulation. Test compounds were administered from time=30 min to time=150 min at which the experiment was terminated. The rabbits were euthanized and the thrombus excised by surgical dissection and characterized by weight and histology. Blood samples were analyzed for changes in hematological and coagulation parameters.

[3] = tested on: Rabbit Model of Venous Thrombosis; assay: Rabbit deep vein thrombosis model, inhibition of thrombus growth; format: in vivo; settings: for % Inhibition of Thrombosis: rabbit
From the text: as §2

[4] = Coagulation parameters (aPTT, PT) in rabbit venous thrombosis model; format: in vivo; settings: for PT fold increase over baseline / aPTT fold increase over baseline: steady state, mean ± SD
From the text: as §2

[5] = target: prothrombinase complex (Homo sapiens, UniProt P00742); assay: Prothrombinase inhibition assay (plasma free system, Chromozym TH); format: biochemical; settings: read-out: Inhibitory Activity (IC50) Prothrombinase
Sequence of prothrombinase complex (P00742 41-179 limits assumed): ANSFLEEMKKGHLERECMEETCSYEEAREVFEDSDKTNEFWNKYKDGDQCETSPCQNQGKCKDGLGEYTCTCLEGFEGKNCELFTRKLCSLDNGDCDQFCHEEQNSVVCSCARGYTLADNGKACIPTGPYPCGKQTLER
Sequence of prothrombinase complex (P00742 235-488 limits assumed): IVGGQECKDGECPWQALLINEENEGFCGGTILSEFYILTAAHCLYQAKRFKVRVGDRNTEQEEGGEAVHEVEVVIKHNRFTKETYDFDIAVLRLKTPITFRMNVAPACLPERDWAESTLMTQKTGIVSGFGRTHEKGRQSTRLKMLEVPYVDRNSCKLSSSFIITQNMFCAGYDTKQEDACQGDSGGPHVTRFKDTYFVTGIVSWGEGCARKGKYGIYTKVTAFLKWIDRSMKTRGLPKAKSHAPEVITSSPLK
Sequence of prothrombinase complex (P12259 29-737 partner limits assumed): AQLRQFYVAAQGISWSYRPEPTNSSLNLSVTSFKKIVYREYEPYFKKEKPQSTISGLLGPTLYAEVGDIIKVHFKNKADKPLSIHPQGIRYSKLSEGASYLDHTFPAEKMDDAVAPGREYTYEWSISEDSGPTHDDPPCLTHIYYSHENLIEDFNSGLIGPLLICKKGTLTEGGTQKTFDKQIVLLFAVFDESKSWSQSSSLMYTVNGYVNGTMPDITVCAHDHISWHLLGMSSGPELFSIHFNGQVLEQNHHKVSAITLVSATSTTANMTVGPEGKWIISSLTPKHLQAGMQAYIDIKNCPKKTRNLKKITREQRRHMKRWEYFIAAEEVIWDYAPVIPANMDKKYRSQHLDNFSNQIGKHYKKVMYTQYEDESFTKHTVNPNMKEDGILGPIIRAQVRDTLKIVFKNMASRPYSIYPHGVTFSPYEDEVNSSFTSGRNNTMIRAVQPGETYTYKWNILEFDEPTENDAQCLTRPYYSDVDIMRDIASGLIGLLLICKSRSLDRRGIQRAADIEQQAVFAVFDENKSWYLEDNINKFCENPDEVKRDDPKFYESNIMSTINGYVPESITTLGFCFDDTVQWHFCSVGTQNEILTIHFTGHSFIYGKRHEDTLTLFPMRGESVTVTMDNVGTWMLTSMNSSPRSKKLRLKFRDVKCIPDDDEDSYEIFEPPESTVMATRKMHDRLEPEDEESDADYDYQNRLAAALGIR
Sequence of prothrombinase complex (P12259 1574-2224 partner limits assumed): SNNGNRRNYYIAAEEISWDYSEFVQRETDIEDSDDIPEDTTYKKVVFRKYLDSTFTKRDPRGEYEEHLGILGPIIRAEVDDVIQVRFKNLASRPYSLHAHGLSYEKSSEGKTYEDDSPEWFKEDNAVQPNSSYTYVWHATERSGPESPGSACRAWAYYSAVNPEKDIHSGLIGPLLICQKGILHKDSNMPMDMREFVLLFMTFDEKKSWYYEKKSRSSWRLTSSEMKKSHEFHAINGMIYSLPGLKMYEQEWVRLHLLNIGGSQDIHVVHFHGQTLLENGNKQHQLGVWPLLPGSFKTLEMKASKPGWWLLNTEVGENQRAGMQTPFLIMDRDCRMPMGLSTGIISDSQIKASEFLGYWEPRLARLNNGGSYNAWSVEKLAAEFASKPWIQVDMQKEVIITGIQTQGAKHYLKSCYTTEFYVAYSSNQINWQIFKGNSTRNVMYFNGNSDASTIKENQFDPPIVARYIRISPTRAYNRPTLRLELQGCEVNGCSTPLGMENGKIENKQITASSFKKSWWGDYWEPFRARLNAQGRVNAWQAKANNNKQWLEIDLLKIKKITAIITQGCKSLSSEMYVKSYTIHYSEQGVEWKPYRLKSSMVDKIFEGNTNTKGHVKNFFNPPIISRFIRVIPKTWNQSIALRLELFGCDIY
Procedure: (§1) In the assays for thrombin, prothrombinase and factor Xa, a synthetic chromogenic substrate is added to a solution containing test compound and the enzyme of interest and the residual catalytic activity of that enzyme is determined spectrophotometrically. The IC50 of a compound is determined from the substrate turnover.

[6] = target: factor Xa (Homo sapiens, UniProt P00742); assay: Factor Xa amidolytic assay (chromogenic substrate S-2765); format: biochemical; settings: read-out: Inhibitory Activity (IC50) Factor Xa
Sequence of factor Xa (P00742 41-179 limits assumed): as the sequence (P00742 41-179 limits assumed) above
Sequence of factor Xa (P00742 235-488 limits assumed): as the sequence (P00742 235-488 limits assumed) above
Procedure: as §1

[7] = highest dose (100 μg/kg+2.57 μg/kg/min)

| IC50 [1] | effects on hematological parameters [2] | IC50 [5] | IC50 [6] | SMILES | antithrombotic efficacy in the rabbit venous thrombosis model ([3]; at the higher doses evaluated) | % Inhibition of Thrombosis ([3]; dose regimen 50 + 1.28 (μg/kg + μg/kg/min)) | % Inhibition of Thrombosis ([3]; dose regimen 75 + 1.93 (μg/kg + μg/kg/min)) | % Inhibition of Thrombosis ([3]; dose regimen 100 + 2.57 (μg/kg + μg/kg/min)) | PT fold increase over baseline ([4]; 50 + 1.28 (μg/kg + μg/kg/min)) | aPTT fold increase over baseline ([4]; 50 + 1.28 (μg/kg + μg/kg/min)) | PT fold increase over baseline ([4]; 75 + 1.93 (μg/kg + μg/kg/min)) | aPTT fold increase over baseline ([4]; 75 + 1.93 (μg/kg + μg/kg/min)) | PT fold increase over baseline ([4]; 100 + 2.57 (μg/kg + μg/kg/min)) | aPTT fold increase over baseline ([4]; 100 + 2.57 (μg/kg + μg/kg/min)) | effect on PT prolongation [4, 7] | effect on aPTT prolongation [4, 7] |
| --- | --- | --- | --- | --- | --- | --- | --- | --- | --- | --- | --- | --- | --- | --- | --- | --- |
| 10 µM |  |  |  | N=C(N)NCCC[C@H](NC(=O)CNC(=O)[C@@H](CCCNC(=N)N)NS(=O)(=O)Cc1ccccc1)C(=O)c1nccs1 [BriSO2 -(D)-Arg-Gly-Arg-thiazole, BnSO2 -(D)-Ar g-Gly-Arg-Thiazole] |  |  |  |  |  |  |  |  |  |  |  |  |
| 41 µM | no significant effects | 0.01 µM | 0.011 µM | NC(N)=NCCCC(N)C(=O)NCC(=O)NC(CCCN=C(N)N)C(=O)c1nccs1 [H-D-Arg-Gly-Arg-thiazole, H-(D)-Arg-Gly-Arg-Thiazole] | demonstrated antithrombotic efficacy | -7.84% | 42.95% | 117.72% | 1.00 ± 0.00 fold | 1.00 ± 0.03 fold | 1.00 ± 0.00 fold | 1.02 ± 0.03 fold | 0.83 ± 0.00 fold | 1.08 ± 0.02 fold | no significant effect | no significant effect |
